Drawing on ChEMBL document CHEMBL3112536, “Pd-N-heterocyclic carbene catalyzed synthesis of piperidine alkene-alkaloids and their anti-cancer evaluation” (Bioorg Med Chem Lett, 2014), this text covers IC50 for ten molecules.

What all share (type): functional, cell-based
Test [1] relates to MCF7. In words: Cytotoxicity against human MCF7 cells assessed as growth inhibition after 24 hrs by MTT assay. The settings on record: MCF7, 24 h.
In test [2] the test system is OVCAR-3. In words: Cytotoxicity against human OVCAR3 cells assessed as growth inhibition after 24 hrs by MTT assay. The following applies: OVCAR-3, 24 h.
Test [3] relates to A549. Nature of the test: Cytotoxicity against human A549 cells assessed as growth inhibition after 24 hrs by MTT assay. The settings on record: A549, 24 h.

≈ marks a conversion by molar mass, not a printed value.

As to `CN1CCCC[C@H]1/C=C/c1ccc(O)cc1`, the IC50 is 1.51 µg/mL (≈ 6.95 µM) in test [1], 1.94 µg/mL (≈ 8.93 µM) in test [2] and 3.45 µg/mL (≈ 15.9 µM) in test [3].
For the molecule `C(=C\[C@@H]1CCCCN1)/c1ccccc1`, the IC50 in test [1] turned out to be 9.15 µg/mL (≈ 48.9 µM); in test [2], 10.5 µg/mL (≈ 55.9 µM); in test [3], 9.99 µg/mL (≈ 53.3 µM).
For `Cc1ccc(/C=C/[C@@H]2CCCCN2)cc1`, the figures for the IC50 in test [1], in test [2] and in test [3] were 5.35 µg/mL (≈ 26.6 µM), 8.48 µg/mL (≈ 42.1 µM) and 8.56 µg/mL (≈ 42.5 µM), respectively.
Regarding `COc1ccc(/C=C/[C@@H]2CCCCN2)cc1`, the IC50 in test [1] amounted to 3.57 µg/mL (≈ 16.4 µM); in test [2], 3.31 µg/mL (≈ 15.2 µM); in test [3], 4.33 µg/mL (≈ 19.9 µM).
With `COc1ccccc1/C=C/[C@@H]1CCCCN1`, the results for the IC50 in test [1], in test [2] and in test [3] were 3.81 µg/mL (≈ 17.5 µM), 4.78 µg/mL (≈ 22 µM) and 4.94 µg/mL (≈ 22.7 µM), respectively.
With `Cc1cccc(C)c1/C=C/[C@@H]1CCCCN1`, the IC50 in test [1] was 4.29 µg/mL (≈ 19.9 µM); in test [2], 6.27 µg/mL (≈ 29.1 µM); in test [3], 7.28 µg/mL (≈ 33.8 µM).
`CCc1ccc(/C=C/[C@@H]2CCCCN2)cc1`: the IC50 in test [1] was found to be 4.13 µg/mL (≈ 19.2 µM); in test [2], 5.07 µg/mL (≈ 23.5 µM); in test [3], 5.94 µg/mL (≈ 27.6 µM).
Take `O=[N+]([O-])c1ccc(/C=C/[C@@H]2CCCCN2)cc1`: the figures for the half-maximal inhibitory concentration (IC50) in test [1], in test [2] and in test [3] were 2.15 µg/mL (≈ 9.26 µM), 1.02 µg/mL (≈ 4.39 µM) and 3.27 µg/mL (≈ 14.1 µM), respectively.
As for `CC(=O)c1ccc(/C=C/[C@@H]2CCCCN2)cc1`, the IC50 in test [1] was 2.7 µg/mL (≈ 11.8 µM); in test [2], 2.18 µg/mL (≈ 9.51 µM); in test [3], 3.69 µg/mL (≈ 16.1 µM).
For the molecule `FC(F)(F)c1ccc(/C=C/[C@@H]2CCCCN2)cc1`, the IC50 in test [1] amounted to 1.25 µg/mL (≈ 4.9 µM); in test [2] it was 0.99 µg/mL (≈ 3.88 µM); in test [3] it was 2.82 µg/mL (≈ 11 µM).
